Measured values taken from US20080241208A1, “Methods, Compositions and Devices For Promoting Anglogenesis” (priority 2005, published 2008).

How the values were obtained:
HUVECs = test: In-vitro angiogenesis model: network formation in collagen gel matrix; assay type: cell-based; conditions: pulsed with PMA, bFGF and NOC18 (10-9) for 2 hr followed by PMA, bFGF and VEGF-C for 70 hr; AngioQuant; FIG. 3
Description: FIG. 4 depicts network formation in HUVECs cultured in collagen gel matrix and treated with PMA, bFGF, and VEGF-C for 72 hr (Positive control). […] Image on left of each figure is stained with phalloidin (cytoskeletal Actin-F marker) and the nuclear dye, Hoechst. Image on right depicts network formation (red lines) used by AngioQuant quantification program (Niemiströ et al 2005). Magnification=4×. The number of networks is 48 in FIG. 3, 44 in FIG. 4, 12 in FIG. 5.

Rabbits = test: In-vivo angiogenesis rabbit subcutaneous implant studies
Description: Rabbits were implanted subcutaneously with nitric oxide generating agent dibenzo[e,k]-2,3,8,9-tetramethyl-1,4,7,10-tetraaza-cyclododeca-1,3,7,9-tetraene, cyclen and plain polymer disks.

Row | Compound | number of networks (HUVECs) | blood vessel formation around disks (Rabbits; explants sectioned and stained with H&E, 20× magnification) | angiogenic activity versus control (Rabbits; subcutaneous polymer disk explants at 28 d and 8 weeks)
1 | NCCN(CCN)/[N+]([O-])=N/O [NOC18] | 48 |  | 
2 | CC1=C(C)N=c2ccccc2=NC(C)=C(C)N=c2ccccc2=N1 [dibenzo[e,k]-2,3,8,9-tetramethyl-1,4,7,10-tetraaza-cyclododeca-1,3,7,9-tetraene] |  | increased blood vessel formation | increased angiogenic activity
